Assay results as given in BigSolDB 2.1.

Oc1ccc(/C=C/c2cc(O)cc(O)c2)cc1
solubility (mole fraction)
Conditions | in dichloromethane | in ethanol | in methanol | in n-butanol | in n-propanol
283.15 K | 1.23e-06 | 0.0212 | 0.0174 | 0.0103 | 0.0134
288.15 K | 1.57e-06 | 0.0224 | 0.0182 | 0.0112 | 0.0145
293.15 K | 2e-06 | 0.0236 | 0.019 | 0.0121 | 0.0156
298.15 K | 2.53e-06 | 0.0248 | 0.0198 | 0.013 | 0.0168
303.15 K | 3.13e-06 | 0.0261 | 0.0206 | 0.014 | 0.018
